# From patent US8691753B2 (priority 2009, dated 2014)
# Tests used:
# Type in all cases: biochemical
# [1] = molecular target: MMP-2h (Homo sapiens (Human), UniProt P08253); experiment: Inhibition constant (Ki) on MMP-2h; conditions: read-out: Ki MMP-2h; human MMP-2
# Procedure, shortened: (§1)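 Protocol from prior literature applied; inhibition constants measured for human enzymes only.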
# [2] = molecular target: MMP-3h (Homo sapiens (Human), UniProt P08254); experiment: Inhibition constant (Ki) on MMP-3h; conditions: read-out: Ki MMP-3h; human MMP-3
# Chain of MMP-3h (P08254 100-477): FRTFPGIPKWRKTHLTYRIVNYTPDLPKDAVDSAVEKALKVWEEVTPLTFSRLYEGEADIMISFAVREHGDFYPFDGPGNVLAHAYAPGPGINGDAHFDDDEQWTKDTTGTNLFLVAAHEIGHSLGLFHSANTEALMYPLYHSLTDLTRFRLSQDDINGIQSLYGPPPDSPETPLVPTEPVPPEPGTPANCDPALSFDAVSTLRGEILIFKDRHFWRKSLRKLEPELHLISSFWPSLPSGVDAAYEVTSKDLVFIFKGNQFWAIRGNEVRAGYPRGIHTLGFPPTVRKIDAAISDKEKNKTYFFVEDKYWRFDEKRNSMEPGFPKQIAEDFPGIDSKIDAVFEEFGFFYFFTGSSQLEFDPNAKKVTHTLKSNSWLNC
# Procedure, shortened: as §1
# [3] = molecular target: MMP-8h (Homo sapiens (Human), UniProt P22894); experiment: Inhibition constant (Ki) on MMP-8h; conditions: read-out: Ki MMP-8h; human MMP-8
# Chain of MMP-8h (P22894 101-467): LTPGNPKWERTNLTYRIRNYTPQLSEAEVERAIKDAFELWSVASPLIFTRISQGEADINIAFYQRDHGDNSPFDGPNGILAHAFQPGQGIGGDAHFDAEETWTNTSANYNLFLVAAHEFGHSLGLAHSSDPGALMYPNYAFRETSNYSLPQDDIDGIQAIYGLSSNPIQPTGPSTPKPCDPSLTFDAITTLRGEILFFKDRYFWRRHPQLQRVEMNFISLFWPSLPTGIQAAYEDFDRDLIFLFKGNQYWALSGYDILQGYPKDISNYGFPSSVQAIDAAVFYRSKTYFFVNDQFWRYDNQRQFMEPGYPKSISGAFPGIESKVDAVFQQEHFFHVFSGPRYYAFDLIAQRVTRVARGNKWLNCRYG
# [4] = molecular target: MMP-9h (Homo sapiens (Human), UniProt P14780); experiment: Inhibition constant (Ki) on MMP-9h; conditions: read-out: Ki MMP-9h; human MMP-9
# Chain of MMP-9h (P14780 94-707): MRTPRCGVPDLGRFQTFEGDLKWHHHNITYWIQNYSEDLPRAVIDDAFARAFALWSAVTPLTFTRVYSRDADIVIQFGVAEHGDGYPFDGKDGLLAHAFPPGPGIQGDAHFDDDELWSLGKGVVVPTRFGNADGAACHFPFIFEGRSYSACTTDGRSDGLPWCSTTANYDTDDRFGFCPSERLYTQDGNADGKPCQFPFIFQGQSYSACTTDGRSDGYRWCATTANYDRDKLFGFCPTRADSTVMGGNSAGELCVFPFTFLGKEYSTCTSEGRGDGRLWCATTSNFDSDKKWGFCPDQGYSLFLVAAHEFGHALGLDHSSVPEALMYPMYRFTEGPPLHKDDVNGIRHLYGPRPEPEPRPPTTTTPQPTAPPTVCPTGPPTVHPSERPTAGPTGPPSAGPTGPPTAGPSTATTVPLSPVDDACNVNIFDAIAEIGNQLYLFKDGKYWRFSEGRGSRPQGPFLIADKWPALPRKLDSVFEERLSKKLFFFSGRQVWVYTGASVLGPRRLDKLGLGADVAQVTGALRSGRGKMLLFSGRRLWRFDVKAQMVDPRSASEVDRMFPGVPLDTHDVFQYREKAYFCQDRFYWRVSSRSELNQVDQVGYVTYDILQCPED
# Procedure, shortened: as §1
# [5] = molecular target: MMP-10h (Homo sapiens (Human), UniProt P09238); experiment: Inhibition constant (Ki) on MMP-10h; conditions: read-out: Ki MMP-10h; human MMP-10
# Chain of MMP-10h (P09238 99-476): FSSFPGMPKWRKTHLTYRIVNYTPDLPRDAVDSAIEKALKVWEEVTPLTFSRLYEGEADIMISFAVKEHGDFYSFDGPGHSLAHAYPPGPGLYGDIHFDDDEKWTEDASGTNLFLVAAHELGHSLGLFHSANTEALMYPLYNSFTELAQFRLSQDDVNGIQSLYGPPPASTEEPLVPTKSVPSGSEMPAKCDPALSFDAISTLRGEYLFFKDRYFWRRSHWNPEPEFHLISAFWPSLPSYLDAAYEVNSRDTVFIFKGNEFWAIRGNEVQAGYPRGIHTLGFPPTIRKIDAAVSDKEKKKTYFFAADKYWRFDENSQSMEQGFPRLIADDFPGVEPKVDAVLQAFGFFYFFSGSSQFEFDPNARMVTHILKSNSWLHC
# [6] = molecular target: MMP-12h (Homo sapiens (Human), UniProt P39900); experiment: Inhibition constant (Ki) on MMP-12h; conditions: read-out: Ki MMP-12h; human MMP-12
# Chain of MMP-12h (P39900 106-470): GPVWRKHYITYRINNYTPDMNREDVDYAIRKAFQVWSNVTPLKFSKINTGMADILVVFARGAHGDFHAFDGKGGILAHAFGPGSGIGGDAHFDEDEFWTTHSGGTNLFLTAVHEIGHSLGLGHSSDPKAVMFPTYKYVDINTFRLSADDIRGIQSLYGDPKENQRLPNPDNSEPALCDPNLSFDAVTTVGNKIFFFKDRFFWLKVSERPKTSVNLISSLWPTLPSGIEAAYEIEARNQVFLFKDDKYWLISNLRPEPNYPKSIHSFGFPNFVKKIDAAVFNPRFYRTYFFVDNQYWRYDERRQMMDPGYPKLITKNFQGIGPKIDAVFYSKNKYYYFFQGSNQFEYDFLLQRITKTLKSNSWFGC
# [7] = molecular target: MMP-13h (Homo sapiens (Human), UniProt P45452); experiment: Inhibition constant (Ki) on MMP-13h; conditions: read-out: Ki MMP-13h; human MMP-13
# Procedure, shortened: as §1
# [8] = molecular target: MMP-14h (Homo sapiens (Human), UniProt P50281); experiment: Inhibition constant (Ki) on MMP-14h; conditions: read-out: Ki MMP-14h; human MMP-14
# Procedure, shortened: as §1
# Chain of MMP-2h (P08253 110-660): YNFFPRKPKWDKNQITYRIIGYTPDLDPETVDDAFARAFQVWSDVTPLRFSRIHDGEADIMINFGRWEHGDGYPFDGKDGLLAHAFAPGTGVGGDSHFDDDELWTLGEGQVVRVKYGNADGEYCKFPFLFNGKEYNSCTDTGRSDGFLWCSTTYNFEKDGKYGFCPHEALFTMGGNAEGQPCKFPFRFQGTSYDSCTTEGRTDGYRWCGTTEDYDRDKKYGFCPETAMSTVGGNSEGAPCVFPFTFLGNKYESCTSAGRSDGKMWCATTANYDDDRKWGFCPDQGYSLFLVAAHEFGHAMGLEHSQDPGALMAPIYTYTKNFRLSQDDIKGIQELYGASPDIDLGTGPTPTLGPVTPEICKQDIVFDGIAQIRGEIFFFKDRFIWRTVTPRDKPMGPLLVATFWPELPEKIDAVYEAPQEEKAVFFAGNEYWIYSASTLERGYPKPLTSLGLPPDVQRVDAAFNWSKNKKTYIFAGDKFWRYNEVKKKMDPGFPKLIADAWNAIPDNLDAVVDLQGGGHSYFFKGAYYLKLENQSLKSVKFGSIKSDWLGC
SMILES,Ki [1] [nM],Ki [2] [nM],Ki [3] [nM],Ki [4] [nM],Ki [5] [nM],Ki [6] [nM],Ki [7] [nM],Ki [8] [nM]
"NC(=O)[C@H](CCC(=O)O)NC(=O)[C@H](CCC(=O)O)NC(=O)CCc1ccc(-c2ccc(-c3nc4ccccc4s3)s2)cc1 [Compound 93, (S)-5-amino-4-((S)-2-(3-(4-(5-(benzo[d]thiazol-2-yl)thiophen-2-yl)phenyl)propanamido)-4-carboxybutanamido)-5-oxopentanoic acid]",> 1000,> 1000,307,> 1000,38.8,17,33,> 5000
"NC(=O)[C@@H](CCC(=O)O)NC(=O)[C@H](CCC(=O)O)NC(=O)CCc1cc(-c2ccc(-c3cccc(Cl)c3)cc2)no1 [Compound 5, (R)-5-amino-4-((S)-4-carboxy-2-(3-(3-(3′-chlorobiphenyl-4-yl)isoxazol-5-yl)propanamido)butanamido)-5-oxopentanoic acid]",112,240,552,> 1000,44,8.9,53,> 1000
"NCCCC[C@H](NC(=O)[C@H](CCC(=O)O)NC(=O)CCc1ccc(-c2ccccc2)cc1)C(N)=O [Compound 44, (S)-4-(3-(biphenyl-4-yl)propanamido)-5-((S)-1,6-diamino-1-oxohexan-2-ylamino)-5-oxopentanoic acid]",> 1000,> 10000,414,> 5000,> 5000,119,> 1000,> 5000
"NC(=O)CC[C@H](NC(=O)[C@H](CCC(=O)O)NC(=O)CCc1ccc(-c2ccc(-c3ccccc3)cc2)cc1)C(N)=O [Compound 62, (S)-5-((S)-1,5-diamino-1,5-dioxopentan-2-ylamino)-4-(3-(4′-phenylbiphenyl-4-yl)propanamido)-5-oxopentanoic acid]",45,244,452,> 1000,102,5.2,20,> 1000
"C[C@H](NC(=O)[C@H](CCC(=O)O)NC(=O)CCc1ccc(-c2cccs2)cc1)C(N)=O [Compound 85, (S)-5-((S)-1-amino-1-oxopropan-2-ylamino)-5-oxo-4-(3-(4-(thiophen-2-yl)phenyl)propanamido)pentanoic acid]",348,> 10000,62,> 5000,835,25.6,> 1000,> 1000
"NC(=O)[C@H](CCC(=O)O)NC(=O)[C@H](CCC(=O)O)NC(=O)CCc1ccc(-c2ccc(-c3ccccc3)s2)cc1 [Compound 92, (S)-5-amino-4-((S)-4-carboxy-2-(3-(4-(5-phenylthiophen-2-yl)phenyl)propanamido)butanamido)-5-oxopentanoic acid]",279,108,381,874,156,2.58,200,> 1000
"NC(=O)[C@H](CC(=O)O)NC(=O)[C@H](CCC(=O)O)NC(=O)CCc1ccc(-c2ccc(-c3ccccc3)cc2)cc1 [Compound 64, (S)-5-((S)-1-amino-3-carboxy-1-oxopropan-2-ylamino)-4-(3-(4′-phenylbiphenyl-4-yl)propanamido)-5-oxopentanoic acid]",55,168,287,> 1000,35,3.3,23,> 5000
"NC(=O)[C@H](CCC(=O)O)NC(=O)CCc1cc(-c2ccc(-c3cccc(Cl)c3)cc2)no1 [Compound 4, (S)-5-amino-4-(3-(3-(3′-chlorobiphenyl-4-yl)isoxazol-5-yl)propanamido)-5-oxopentanoic acid]",90,118,119,120,122,11.8,46,> 1000
